According to publication PMC5880945, “D-Arg^0-Bradykinin-Arg-Arg, a Latent Vasoactive Bradykinin B2 Receptor Agonist Metabolically Activated by Carboxypeptidases” (Frontiers in Pharmacology, 2018):
Entries after “also recorded” stand apart in the source; their conditions may differ. Read-outs that look alike come from different tables or passages of the source. Square brackets hold non-standard residues; d marks the D form. Peptide text beside a SMILES is read from it.

Legend:
[1] = target: T1, rat myc-B2R (bradykinin B2 receptor) (Rattus norvegicus, UniProt P25023); test: [3H]BK binding competition assay; details: for affinity for rat B2R, in words: rat myc-B2R
T1 construct: expressed in transfected cells
T1 sequence (P25023 1-396): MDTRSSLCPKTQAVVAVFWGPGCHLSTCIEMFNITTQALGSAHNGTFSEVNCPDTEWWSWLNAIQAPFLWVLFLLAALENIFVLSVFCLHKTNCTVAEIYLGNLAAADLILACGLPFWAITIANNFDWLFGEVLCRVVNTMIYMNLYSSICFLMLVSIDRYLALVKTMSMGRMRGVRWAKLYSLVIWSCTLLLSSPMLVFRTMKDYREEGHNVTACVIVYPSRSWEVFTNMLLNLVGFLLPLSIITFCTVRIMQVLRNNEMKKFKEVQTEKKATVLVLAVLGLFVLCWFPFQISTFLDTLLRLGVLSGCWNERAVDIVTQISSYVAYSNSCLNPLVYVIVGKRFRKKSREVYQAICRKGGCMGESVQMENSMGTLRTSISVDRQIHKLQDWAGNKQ
Method: Affinity for the B2R was evaluated using a radioligand binding competition assay performed at 0°C in the presence of peptidase inhibitors that included captopril and PMSF ([Charest-Morin et al., 2014]). Briefly, the binding of 3 nM [^3H]bradykinin (Perkin Elmer Life Sciences; 90 Ci/mmol) to adherent intact Human Embryonic Kidney (HEK 293) cells stably expressing the myc-tagged rat B2R construction ([Charest-Morin et al., 2017]) was applied to construct binding competition curves for a series of unlabeled peptides.
(§1) Results are presented as means ± SEM. Radioligand binding data were fitted by non-linear regression to a one-site competition equation using a least-square method (Prism 5.0, GraphPad Software Inc., San Diego, CA, United States) and IC50 values calculated from this procedure. The same computer program was used to draw concentration-effect curves generated with the contractility assay (least square fitting of sigmoidal dose-response equation with variable slope) and to derive contractile EC50 values. Data describing the dose-response relationship of novel peptides vs. hypotension and heart rate changes, the baseline values of heart rate and mean arterial blood pressure and the effect of drugs on the hemodynamic responses to r-B K and r-BK-RR were assessed by using one-way analysis of variance (ANOVA) followed by the Dunnett’s test (repeated comparison with a common control; Prism 5.0 software).

[2] = system: B2R, human isolated umbilical vein; test: Human umbilical vein contractility assay (bioassay for the endogenous B2R); details: for EC50: 95% confidence limits in parentheses, read-out: contractile EC50; for contractile potency, in words: human umbilical vein
Method: The institutional research ethics board (CHU de Québec) approved the anonymous use of human umbilical cord segments obtained after elective cesarean section deliveries (file number: 2012-323). Informed written consent was obtained from mothers. Umbilical vein rings, used as a contractile bioassay for the BK B2R, were prepared and suspended in organ baths and submitted to equilibration in Krebs’ solution as described ([Marceau et al., 1994]; [Gera et al., 2011]). The vascular preparation was used to assess the effect of the peptidase inhibitors (introduced 30 min before the agonist) on the apparent potency of r-BK and r-BK-RR. The full cumulative concentration-effect curves were recorded for each peptide; a large concentration of BK (9.4 μM) was added to record the maximal contractile effect mediated by the B2Rs for low potency agonists. Tissues were used only once and discarded; controls curves were obtained from other vascular rings from the same vein.
as §1

[3] = system: human ACE-mCherry fusion protein; test: Competition of a fluorogenic ACE substrate by synthetic kinins (recombinant ACE-mCherry); format: biochemical; details: 15 min, 37°C
Method: The source of enzyme was whole HEK 293a cells grown in 24-well plates and transfected as described with a vector coding for the human ACE-mCherry fusion protein, an active enzyme ([Charest-Morin and Marceau, 2016]). The culture medium was removed from cell wells, which were rinsed twice with PBS. The fluorogenic substrate (final concentration 20 μM), and, optionally, a competitor (BK, r-BK, or r-BK-RR in variable concentrations, or the ACE inhibitor enalaprilat 1 μM) were added in 250 μl PBS in each well; the plates were then incubated for 15 min at 37°C. At this point, the well supernatants were transferred in Eppendorf tubes, centrifuged 30 s at 12500 rpm to remove debris and 100 μl of this fluid transferred in wells of 96-well plate (black background) to read the fluorescence (excitation 320 nm, emission 420 nm) using a TECAN Infinite® 200 PRO microplate reader. Results were expressed as the percent of the fluorescence in wells containing ACE-mCherry and the substrate without competitors. Controls included mock-transfected cells and enalaprilat-treated cells.

[4] = system: GFP-tagged rabbit B2R (B2R-GFP); test: B2R-GFP endocytosis and recycling, epifluorescence microscopy, HEK 293 cells; format: cell-based; details: 30 min; for B2R-GFP internalization with Plummer’s inhibitor, in words: Plummer’s inhibitor alone
Method: This system, based on a serum-containing culture medium, contains ACE and Arg-carboxypeptidase activities ([Bachvarov et al., 2001]; [Charest-Morin et al., 2014]). r-BK or r-BK-RR were added to 35-mm Petri dishes containing the cells with optional pre-treatment with peptidase inhibitors and the cells were observed as described after 30 min of incubation at 37°C ([Charest-Morin et al., 2014]).

[5] = + Plummer’s inhibitor 1 μM, 30 min before agonist
[6] = + enalaprilat 1 μM + Plummer’s inhibitor 1 μM, 30 min before agonist
[7] = + enalaprilat 1 μM, 30 min before agonist

| Structure (SMILES) | competition on the binding of [3H]BK to B2R, in words ([1]; 100 nM) | affinity for rat B2R, in words ([1]; [3H]BK binding competition) | decrease of receptor affinity (less potent) ([1]; r-BK-RR, [3H]BK binding competition, rat B2R) [fold] | effect of combination Plummer’s inhibitor + enalaprilat vs. enalaprilat alone, in words ([2]; 1 μM each) | EC50 [2, 5] [µM] | EC50 [2, 6] [µM] | EC50 [2, 7] [µM] | effect of Plummer’s inhibitor on apparent contractile potency, in words ([2]; Plummer’s inhibitor 1 μM) | EC50 ([2]; control (no inhibitor)) [µM] | contractile potency, in words [2] | competition for recombinant ACE, relative affinity, in words ([3]; Abz-Phe-Arg-Lys(Dnp)-Pro-OH 20 μM, HEK 293a cells with ACE-mCherry, PBS, fluorescence ex 320 / em 420 nm) | B2R-GFP internalization with Plummer’s inhibitor, in words ([4]; 100 nM, 15 min before) | B2R-GFP internalization with enalaprilat + Plummer’s inhibitor, in words ([4]; 100 nM, both inhibitors 15 min before) | B2R-GFP internalization with enalaprilat, in words ([4]; 100 nM, enalaprilat alone, 15 min before) | effect of enalaprilat and/or Plummer’s inhibitor on contractile response, in words ([2]; enalaprilat and/or Plummer’s inhibitor, 1 μM each) | inhibition of ACE substrate hydrolysis, in words ([3]; competitor 20 μM (equal to substrate concentration), fluorescence) | B2R-GFP internalization, in words ([4]; 100 nM, 37°C, serum-containing culture medium, no inhibitor) | proportion of cells exhibiting internalization of B2R-GFP ([4]; with enalaprilat and/or Plummer’s inhibitor (not influenced by any)) [%] |
| --- | --- | --- | --- | --- | --- | --- | --- | --- | --- | --- | --- | --- | --- | --- | --- | --- | --- | --- |
| N=C(N)NCCC[C@@H](N)C(=O)N[C@@H](CCCNC(=N)N)C(=O)N1CCC[C@H]1C(=O)N1CCC[C@H]1C(=O)NCC(=O)N[C@@H](Cc1ccccc1)C(=O)N[C@@H](CO)C(=O)N1CCC[C@H]1C(=O)N[C@@H](Cc1ccccc1)C(=O)N[C@@H](CCCNC(=N)N)C(=O)N[C@@H](CCCNC(=N)N)C(=O)N[C@@H](CCCNC(=N)N)C(=O)O [r-BK-RR, D-Arg^0-BK-Arg-Arg] (H-[dR]RPPGFSPFRRR-OH) | little competition | direct micromolar affinity; also recorded: very little direct affinity for B2R | 61 | not significantly more effective than enalaprilat alone | 0.85 | 1.76 | 1.51 | only slightly decreased the apparent potency | 0.431 | less potent than r-BK but more potent than anticipated from the radioligand binding competition assay | only slightly less potent than the two other peptides | only a partial effect | suppress the effect of r-BK-RR | suppress the effect of r-BK-RR | – | – | – | – |
| N=C(N)NCCC[C@@H](N)C(=O)N[C@@H](CCCNC(=N)N)C(=O)N1CCC[C@H]1C(=O)N1CCC[C@H]1C(=O)NCC(=O)N[C@@H](Cc1ccccc1)C(=O)N[C@@H](CO)C(=O)N1CCC[C@H]1C(=O)N[C@@H](Cc1ccccc1)C(=O)N[C@@H](CCCNC(=N)N)C(=O)O [r-BK, D-Arg^0-BK] (H-[dR]RPPGFSPFR-OH) | – | practically equal to that of BK | – | – | 0.0684 | 0.0451 | 0.0616 | – | 0.0624 | potent contractile agent | – | no effect | – | – | essentially unaffected; also recorded: enalaprilat failed to potentiate r-BK | nearly complete inhibition | the fluorescent receptor was internalized | > 90 |
